Measurements taken from PMC12428754, “Testing Strategies for Metabolite-Mediated Neurotoxicity” (International Journal of Molecular Sciences, 2025).
Like-named read-outs stand apart in the source and are kept apart here.

Columns and labels:
[1] = system: LUHMES cells; test: MitoMet (UKN4b) neurite outgrowth assay; format: cell-based, human; conditions: for IC25: benchmark response 25%, neurite area, 24 h exposure, three independent experiments, read-out: BMC25 neurite outgrowth
Protocol: Figure 1 (A) A strategy scheme to assess metabolite-mediated hazard in NAMs used for neurotoxicity or developmental neurotoxicity. Parent and metabolite compounds are tested separately in the respective assay. This strategy is applicable when there is prior knowledge of metabolite formation. A decision rule based on the relative toxicities (X) of the parent and metabolite may be applied to decide whether next-generation risk assessment (NGRA) should be applied to the metabolite. The value of X may be defined according to the problem formulation and the NAM used. (B) An assay scheme of the neurite outgrowth assay used here for exemplification: Proliferating LUHMES cells were replated one day before differentiation was initiated (day −1). After two days (day 2) in differentiation medium, the cells were replated into assay format (96-well). At this point, neurite growth was re-initiated. The cells were treated with toxicants 1 h after replating. Neurite outgrowth and viability were determined 24 h later, using automated high content imaging. (C) Comparison of neurite outgrowth of cultures treated with bromethalin and desmethyl-bromethalin one exemplary parent/metabolite pair (chemical structures shown). […] The curves are based on data from three independent experiments and were fitted using a four-parameter Hill function. Data points shown are arithmetic means of data from independent experiments ±SEM. In each independent experiment, the technical replicates were measured and averaged. A benchmark response (BMR) of 25% was used as specified in the detailed assay description, and the respective benchmark concentration (BMC25) was determined. […] (D) Microscopic images of calcein-stained LUHMES cells. Similar images are used for neurite quantification. Treatment with 40 nM of the parent (left) or metabolite (right). The scale bar in orange corresponds to 50 µm. […] It stands under panel C and to the right of panel D, and was assigned to C.
The MitoMet neurite outgrowth assay was performed as previously described. In brief, all cell culture dishes and flasks were pre-coated with 50 μg/mL poly-l-ornithine (PLO) and 1 μg/mL fibronectin. Proliferating LUHMES cells were maintained in AdvDMEM/F12 containing L-glutamine (2 mM), N2 supplement (1x), and FGF (40 ng/mL). For pre-differentiation, the cells were replated at a density of 46,000 cells/cm^2 one day prior to the induction of differentiation (defined as the day of differentiation, Day −1). Differentiation was initiated by exchanging the culture medium for AdvDMEM/F12 supplemented with L-glutamine (2 mM), N2 supplement (1x), dibutyryl-cAMP (1 mM), tetracycline (1 µg/mL), and GDNF (2 ng/mL). After two days of differentiation (Day 2), the cells were replated (100,000 cells/cm^2) into 96-well plates. The final assay medium consisted of glucose-free AdvDMEM/F12 supplemented with galactose (18 mM), L-glutamine (2 mM), and tetracycline (1 µg/mL). One hour after replating, the cells were treated with a 10× concentrated stock solution of the test compound. Neurite outgrowth and viability were determined 24 h later, using automated high content imaging.
(§1) The image acquisition and analysis were conducted according to established protocols. The cells were stained with Hoechst H-33342 (1 µg/mL) to visualise nuclei and calcein-AM (1 µM) to label viable cell structures. Fluorescent images were acquired using an automated imaging system.

[2] = system: hiPSC-derived immature human dorsal root ganglia neuron-like cells; test: PeriTox (UKN5a) neurite outgrowth assay; format: cell-based; conditions: for parent/metabolite potency ratio (BMC25): listed under the metabolite
Protocol: PeriTox assay was performed as previously described. In brief, cryopreserved hiPSC-derived immature human dorsal root ganglia neuron-like cells were thawed and plated at a density of 100,000 cells/cm^2 into matrigel-coated 96-well plates. The cells were cultured in 75 µL PeriTox differentiation medium (PDM) consisting of 25% KSR-S and 75% N2-S media supplemented with 1.5 µM CHIR99021, 1.5 µM SU5402, and 5 µM DAPT (KSR-S: knockout DMEM with 15% serum replacement, 1x Glutamax, 1x nonessential amino acids, and […] beta-mercaptoethanol; N2-S: DMEM/F12, with 2 mM Glutamax, 0.1 mg/mL apotransferrin, 1.55 mg/mL glucose, 25 µg/mL insulin, […] putrescine, 30 nM selenium, and 20 nM progesterone). After one hour, 25 µL PDM with 4x concentrated serial dilutions of the test compounds was added to the cells.
as §1, with “system. An image analysis algorithm detected nuclei to define somatic regions, which were then excluded from the total calcein-positive area. The remaining signal was quantified as the neurite area.” for “system.”
In the first step, matched technical replicates were averaged. […] For visualisation, GraphPad Prism 9 was used. […]
Supplementary Figure S1: Comparison of data from the MitoMet test and the PeriTox test. A) Exposure scheme for the PeriTox test (UKN5a):
For testing, cryopreserved hiPSC-derived immature human dorsal root ganglia neuron-like cells were thawed and plated into 96-well plates. Cells were treated with toxicants at one h after plating. Neurite outgrowth and viability were determined at 24 h later, using automated high content imaging. B) Benchmark concentrations (BMC25) were calculated as a measure for “onset of toxicity” for the MitoMet (UKN4b; as described in Figure 1) and UKN5a assay. If no BMC could be determined, the highest tested concentration was used as surrogate endpoint. The arrows indicate the sensitivity shifts of parent vs metabolite in the respective assay. […]

[3] = system: hiPSC-derived neural crest-like cells; test: cMINC (UKN2) neural crest cell migration assay; format: cell-based, human; conditions: listed under the metabolite
Protocol: Figure 6 The transfer of the metabolisation module to the neural crest cell migration assay (cMINC). (A) A schematic of the cMINC (circular migration of neural crest cells) assay. The cells were seeded around a central stopper to create a cell-free circular area. Migration was initiated 24 h after seeding by removing the stopper. This is defined as the day of migration (DoM) 0. On DoM 1, the cells were exposed to toxicants. After 24 h of exposure, both cell migration and viability were quantified, using automated high-content imaging. (B) Compatibility of the metabolisation module (preincubation with 500 µg/mL S9 at 37 °C for 2 h) with the cMINC assay: The setup was as described in Figure 4 and as exemplified in Figure 5A. No compound was added (solvent control). The S9 mixture (at 500 µg/mL ± NADPH) was added to the normal cell culture medium of the cMINC assay (so that the addition was 10% of the total volume). Data are from three independent experiments. (C,D) The concentration-dependent effects on migration were evaluated for metabolite mixtures generated from bromethalin (C) or chlorfenapyr (D). […] The arrows indicate the direction of sensitivity shift between NADPH-dependent and -independent metabolite mixtures, with accompanying fold change values. The concentrations are given as nominal concentrations of the parent compound. Abbreviations: n.s., not significant. TEXT PRINTED IN THE PICTURE: (C) Bromethalin: x30 | (D) Chlorfenapyr: x15
The MINC assay was performed as previously described. Briefly, 96-well plates were prepared by inserting a central 2 mm diameter stopper (Platypus Technologies, Madison, WI, USA) into pre-coated wells with a composite poly-L-ornithine (PLO; 10 µg/mL), fibronectin (1 µg/mL), and laminin (1 µg/mL) matrix. […] After a further 24 h (DoM 2), cell migration and viability were assessed. […] High content imaging was performed, and data were analysed using the RingAssay V1 software (http://invitrotox.uni-konstanz.de/, accessed on 3 February 2025). […]

| Structure (SMILES) | IC25 ([1]; Homo sapiens) | effect on peripheral neurite outgrowth ([2]; result in words) | parent/metabolite potency ratio (BMC25) [2] | neurite area, metabolite compared to parent at equimolar concentrations ([1]; 40 nM, calcein-stained LUHMES cells) | IC25 [1] | fold change between BMC25 values of parent and metabolite (potency ratio, parent divided by metabolite) ([1]; listed under the metabolite, >1 = metabolite more potent) | increase in potency of metabolite compared to parent (BMC25 ratio) [3] |
| --- | --- | --- | --- | --- | --- | --- | --- |
| O=C(c1ccccc1)c1ccccc1 [Benzophenone] | > 500 µM | neither benzophenone nor its hydroxy metabolite showed any significant effect | – | – | – | – | – |
| COC(=O)Nc1nc2ccccc2[nH]1 [Carbendazim] | 4.8 µM | – | 0.2 | – | – | – | – |
| O=[N+]([O-])c1cc([N+](=O)[O-])c(Nc2c(Br)cc(Br)cc2Br)c(C(F)(F)F)c1 [Desmethyl-bromethalin] | – | – | 3 | clear reduction in the neurite area | 0.014 µM | 57 fold | 44 fold |
